Test results reported in the supplement of paper PMC7840683.
Where a name gives a salt, the structure may show the parent alone. ± gives the standard deviation of the averaged measurements.

Tested on: HepaRG
Test: LDH release cytotoxicity, % of total lysis control; higher = more cytotoxic
Conditions: 48 h
Summary of the method: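 Duplicate wells of single-lot HepaRG cells, grown on collagen I-coated 96-well plates, received eight-point half-log series of test chemicals with 100 µM as the top concentration. Exposure lasted 48 h in serum-free induction medium with 0.5% DMSO, while total lysis wells received 0.1% Triton X. Resorufin fluorescence (CytoTox-ONE, Tecan Safire) was used to quantify LDH leaked into 50 µL of spent medium. Values for percent cytotoxicity were normalized to on-plate vehicle and total lysis controls and averaged across the duplicates.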

Structure (SMILES)	LDH release cytotoxicity (0.03162 µM)	LDH release cytotoxicity (0.1 µM)	LDH release cytotoxicity (0.3162278 µM)	LDH release cytotoxicity (1 µM)	LDH release cytotoxicity (3.16228 µM)	LDH release cytotoxicity (10 µM)	LDH release cytotoxicity (31.6228 µM)	LDH release cytotoxicity (100 µM)	LDH release cytotoxicity (0.0297254 µM)	LDH release cytotoxicity (0.094 µM)	LDH release cytotoxicity (0.297254 µM)	LDH release cytotoxicity (0.94 µM)	LDH release cytotoxicity (2.97254 µM)	LDH release cytotoxicity (9.4 µM)	LDH release cytotoxicity (29.72541 µM)	LDH release cytotoxicity (94 µM)	LDH release cytotoxicity (0.031623 µM)	LDH release cytotoxicity (0.316228 µM)
CC(N)=O [Acetamide]	-1.42 ± 0.94%	-0.0289 ± 1.8%	-1.35 ± 0.33%	-2.5 ± 0.18%	-2.19 ± 1.4%	-0.925 ± 0.15%	-0.0914 ± 0.22%	1.3 ± 0.62%	–	–	–	–	–	–	–	–	–	–
O=[N+]([O-])c1ccc(O)c([N+](=O)[O-])c1 [2,4-Dinitrophenol]	-0.273 ± 0.077%	-1.23 ± 0.39%	-0.515 ± 0.069%	-1 ± 0.71%	-0.876 ± 0.33%	0.105 ± 0.71%	0.264 ± 0.47%	0.252 ± 0.21%	–	–	–	–	–	–	–	–	–	–
CC(=O)Nc1ccc(O)cc1 [Acetaminophen]	-3.14 ± 0.072%	-3.633 ± 0.0048%	-2.81 ± 0.035%	-3.06 ± 0.61%	-3.13 ± 0.24%	-3.2 ± 0.3%	-2.512 ± 0.0032%	-1.82 ± 0.68%	–	–	–	–	–	–	–	–	–	–
Oc1ccccc1Cl [2-Chlorophenol]	-2.95 ± 2.4%	-4.22 ± 0.094%	-4.63 ± 0.13%	-4.14 ± 0.96%	-3.68 ± 0.21%	-3.65 ± 0.22%	-2.05 ± 0.13%	1.5 ± 0.076%	–	–	–	–	–	–	–	–	–	–
CCCCC(O)(Cn1cncn1)c1ccc(Cl)cc1Cl (configuration not stated) [Hexaconazole]	-0.998 ± 0.92%	-0.668 ± 1.4%	0.00223 ± 0.062%	-0.913 ± 0.57%	-0.0659 ± 0.044%	0.28 ± 0.96%	-0.401 ± 0.24%	10.1 ± 1.3%	–	–	–	–	–	–	–	–	–	–
C#CC(O)C(CC)CCCC (configuration not stated) [4-Ethyloct-1-yn-3-ol]	-1.1 ± 1.3%	-0.852 ± 0.24%	-1.73 ± 0.62%	-1.75 ± 0.33%	-0.91 ± 0.66%	-1.32 ± 0.19%	-1.07 ± 0.15%	0.266 ± 0.29%	–	–	–	–	–	–	–	–	–	–
COS(C)(=O)=O [Methyl methanesulfonate]	-1.45 ± 0.74%	-1.11 ± 0.35%	-1.7 ± 0.1%	-0.993 ± 1.2%	-1.33 ± 0.4%	-1.07 ± 0.89%	-1.15 ± 0.067%	0.825 ± 0.66%	–	–	–	–	–	–	–	–	–	–
O=[Si]=O [Silica]	-1.16 ± 0.54%	-1.07 ± 0.26%	-1.23 ± 0.016%	-0.971 ± 0.66%	-1.72 ± 0.45%	-1.27 ± 0.37%	-0.861 ± 1%	0.501 ± 1.1%	–	–	–	–	–	–	–	–	–	–
CC(C)c1cccc(C(C)C)c1NC(=O)NS(=O)(=O)c1cc(C(C)(C)O)co1	0.635 ± 1.6%	0.0343 ± 1.8%	-0.878 ± 0.1%	-1.57 ± 0.35%	-1.32 ± 0.93%	-1.29 ± 0.37%	-1.24 ± 1.1%	-0.335 ± 0.29%	–	–	–	–	–	–	–	–	–	–
CN(C)C(=O)NC1(c2ccccc2)CCN(CCC2(c3ccc(F)c(F)c3)CN(C(=O)c3ccccc3)CCO2)CC1 (configuration not stated)	–	–	–	–	–	–	–	–	-1.81 ± 0.57%	-1.79 ± 0.3%	-2.55 ± 0.21%	-1.66 ± 1.4%	-1.69 ± 1.1%	-1.59 ± 0.17%	0.14 ± 0.97%	13.5 ± 2.6%	–	–
CCCCC(CC)C(=O)OCCOCCOCCOC(=O)C(CC)CCCC (configuration not stated) [Triethylene glycol bis(2-ethylhexanoate)]	-2.57 ± 0.42%	-3.93 ± 0.075%	-3.45 ± 0.14%	-3.69 ± 0.87%	-3.81 ± 1.2%	-4.01 ± 1.4%	-5.53 ± 4%	-1.89 ± 0.23%	–	–	–	–	–	–	–	–	–	–
CCCCOC(=O)CC(CC(=O)OCCCC)(OC(C)=O)C(=O)OCCCC [Acetyl tributyl citrate]	-1.13 ± 2%	-1.34 ± 0.08%	-1.35 ± 0.17%	-1.86 ± 1.8%	-1.7 ± 0.77%	-0.33 ± 1.3%	-0.458 ± 0.058%	0.439 ± 0.83%	–	–	–	–	–	–	–	–	–	–
O=[N+]([O-])c1ccc(Cl)c(Cl)c1 [3,4-Dichloronitrobenzene]	-2.51 ± 0.31%	-2.5 ± 0.12%	-2.72 ± 0.62%	-3.32 ± 0.099%	-2.26 ± 0.096%	-2.3 ± 0.049%	-1.86 ± 0.037%	-0.0607 ± 0.49%	–	–	–	–	–	–	–	–	–	–
CCCC1=NC(=S)NC(=O)C1 [6-Propyl-2-thiouracil]	-1.25 ± 0.13%	-1.68 ± 0.29%	-2.72 ± 0.31%	-2.49 ± 0.1%	-2.28 ± 0.038%	-1.9 ± 0.03%	-1.25 ± 0.71%	0.0182 ± 1.5%	–	–	–	–	–	–	–	–	–	–
CNS(=O)(=O)c1cc(C(=O)N2CCC(CCN3C4CCC3CC(n3c(C)nc5ccccc53)C4)(c3cccc(F)c3)CC2)c(Cl)cc1F (configuration not stated)	-1.92 ± 0.56%	-0.773 ± 0.51%	-1.36 ± 0.34%	-1.37 ± 0.31%	-1.08 ± 0.021%	-0.27 ± 0.57%	10.5 ± 0.32%	23.1 ± 0.81%	–	–	–	–	–	–	–	–	–	–
CC1(C)C(C=C(Cl)Cl)C1C(=O)OC(C#N)c1ccc(F)c(Oc2ccccc2)c1 (configuration not stated) [Cyfluthrin]	–	-1.05 ± 0.37%	–	-1.61 ± 2.3%	-1.18 ± 0.56%	-0.972 ± 1.4%	-0.561 ± 1.3%	-0.122 ± 0.2%	–	–	–	–	–	–	–	–	0.499 ± 1.5%	-1.18 ± 2.4%
ClC1(Cl)C2(Cl)C3(Cl)C4(Cl)C(Cl)(Cl)C5(Cl)C3(Cl)C1(Cl)C5(Cl)C24Cl (configuration not stated) [Mirex]	–	-1.3 ± 1.1%	–	-2.25 ± 0.86%	-1.59 ± 0.079%	-1.21 ± 0.25%	-1.01 ± 0.41%	0.619 ± 0.41%	–	–	–	–	–	–	–	–	1.5 ± 0.54%	-1.85 ± 0.6%
Cc1nn(C)c(Oc2ccccc2)c1C=NOCc1ccc(C(=O)OC(C)(C)C)cc1 [Fenpyroximate (Z,E)]	-1.39 ± 1.1%	-1.596 ± 0.013%	-2.4 ± 0.59%	-2.65 ± 0.51%	11 ± 1.3%	17.19 ± 0.12%	20.7 ± 1.8%	30.9 ± 2.2%	–	–	–	–	–	–	–	–	–	–
O=Cc1ccccc1C=O [1,2-Benzenedicarboxaldehyde]	-1.01 ± 0.34%	-0.945 ± 0.21%	-1.43 ± 0.23%	-0.52 ± 1.3%	-0.768 ± 0.29%	-0.0584 ± 0.28%	1.36 ± 0.23%	7.96 ± 1.3%	–	–	–	–	–	–	–	–	–	–
